From patent US4421745A, “Antiepileptics” (Takeda Chemical Industries, Ltd., priority 1981, dated 1983)

What was measured:
[1] = tested on: degenerative myoclonus epilepsy; test: Clinical Case 1: DN-1417 treatment of epileptic patient; type: in vivo, human
Experimental: They were given DN-1417, 2 mg. i.m. at 10:00 A.M. every day for 2 weeks concomitantly with the prior antiepileptics.

[2] = tested on: epilepsy, tuberous sclerosis (tonic convulsion and atypical absence); test: Clinical Case 2: DN-1417 treatment of epileptic patient; type: in vivo, human
Experimental: In conjunction with the antiepileptic drugs so far used, DN-1417 was administered intramuscularly in doses of 0.5 mg. for 10 days and, then, in doses of 1 mg. for 4 days.

[3] = tested on: Lennox's syndrome; test: Clinical Case 3: DN-1417 treatment of epileptic patient; type: in vivo, human
Experimental: During the period from July 22 to Aug. 4, 1981, 1 mg of DN-1417 was administered intramuscularly once daily for 14 consecutive days, concomitantly with the antipileptics so far employed.

[4] = tested on: epilepsy (tonic convulsion, tonoclonic convulsion and clonic convulsion); test: Clinical Case 4: DN-1417 treatment of epileptic patient; type: in vivo, human
Experimental: During the period from July 22 to Aug. 4, 1981, DN-1417 was administered intramuscularly in daily doses of 1 mg. for 14 days, together with the antiepileptics so far employed.

[5] = tested on: temporal lobe epilepsy; test: Clinical Case 5: DN-1417 treatment of epileptic patient; type: in vivo, human
Experimental: In addition to the prior medication of antiepileptics (10 tablets of HYDANTOL F® each containing 25 mg. phenytoin, 8 mg. phenobarbital and 17 mg. caffeine and sodium benzoate, 1 g. of carbamazepine, 0.09 g. of phenobarbital and 250 mg. of actazolamide), DN-1417 was intramuscularly administered in dose of 1 mg./day for 2 weeks. […] From the 7th day of the DN-1417 treatment they began to explain their conditions as, "The time to get off the bed from awaking has been shortened." and "Became easy to get to the next action in doing anything."Improvement of such psychic symptoms was maintained for a week after the end of the DN-1417 treatment. Automatism occurred a week after the end of the DN-1417 treatment and impaired-consciousness seizure occurred twice in the 3rd week of post-treatment.

[6] = tested on: West's syndrome; test: Clinical Case 6: DN-1417 treatment of epileptic patient; type: in vivo, human; details: for Frequency of seizure occurrences: before DN-1417
Experimental: Nitrazepam in dosage of 1.5 mg./day was administered in three divided doses to show less frequency of the seizure occurrences (from 10 times a day to 6-7 times a day). […] The drowsiness was fairly ameliorated but the frequency of the seizure occurrences was not reduced (10 times a day).
DN-1417 in dosage of 0.03 mg./kg. (0.3 mg./day) was intravenously given for 22 days in addition to the treatment with nitrazepam in dosage of 0.6 mg./day.

[7] = Blood concentrations of antiepileptics in Case 3
From the text: The treatment consisted of a multiple drug therapy using phenytoin, phenobarbital, sodium valproate, nitrazepam and clonazepam.

NC(=O)[C@@H]1CCCN1C(=O)[C@H](Cc1c[nH]cn1)NC(=O)[C@@H]1CCC(=O)O1.O=C(O)CC(O)(CC(=O)O)C(=O)O [DN-1417, (S)-γ-butyrolactone-γ-carbonyl-L-histidyl-L-prolinamide citrate]
Time after withdrawal until photomyoclonic response reappeared [1]: about 80 days
Type of action from EEG changes and clinical symptoms [1]: antimyoclonic action though not a definite anticonvulsive action
Continuation of clinical improvement after withdrawal of the drug ([1]; 2 mg daily for 2 weeks): about 1 month
Side effect ([1]; 2 mg daily for 2 weeks): without any side effect
Overall clinical effect ([1]; 2 mg i.m. daily for 2 weeks with prior antiepileptics): effective in improving myoclonus, cerebellar symptoms, psychic activity and EEG
EEG ([1]; 3rd day of treatment): No improvement
Persistence of marked EEG improvements ([1]; after 2nd EEG at day 8 of treatment): about 50 days
EEG response to photic stimulation ([1]; day 8 of treatment): entirely normal
Overall clinical effect [2]: remarkable improvements in daily activity and improvements in clinical episode and EEG
Side effect [2]: no side effect
Clinical episodes ([2]; after 2 weeks): no clinical episodes
EEG ([2]; after 2 weeks, EEG at sleep): frequency of paroxymal patterns was halved
Clinical episodes ([2]; i.m. 0.5 mg for 10 days then 1 mg for 4 days with prior antiepileptics, after one week): No clinical episodes
Overall clinical effect [3]: decreased incidence of clinical episodes, improved EEG findings and remarkable improvements in daily life
Side effect [3]: no side effect
Clinical episodes ([3]; 1 mg i.m. once daily for 14 days with prior antiepileptics, after one week): no clinical episode
Clinical episodes ([3]; after 2 weeks): one episode of atypical absence
EEG ([3]; after 2 weeks): no polyspike-and-slow wave complex and only a decreased sharp-and-slow wave complex
EEG ([3]; after one week): decrease in polyspike-and-slow wave complex but an increase in sharp-and-slow wave complex
Clinical episodes ([3]; one week after withdrawal): No clinical episode
EEG ([3]; one week after withdrawal): less bursts, with an increased regularity of basal wave
Activities of daily life and mental condition (summary) [4]: A remarkable improvement
Clinical seizures (summary) [4]: No change or a slight improvement
EEG (summary) [4]: A moderate improvement
Overall evaluation [4]: moderate improvement
Side effect [4]: no apparent side effect
Epileptic seizures ([4]; 1 mg i.m. daily for 14 days with prior antiepileptics, after one week): No epileptic seizure
EEG ([4]; after 2 weeks): fair improvement in continuity, with a regularity
Epileptic seizures ([4]; after 2 weeks): No epileptic seizure
EEG ([4]; after one week): remarkable improvement
Seizures after withdrawal ([4]; three weeks after withdrawal): Clonic convulsion appeared on day 6 after withdrawal
EEG findings [5]: No noteworthy change
Overall clinical effect [5]: effective in this patient
Seizures during the treatment ([5]; 1 mg/day i.m. for 2 weeks with prior antiepileptics): autonomic seizure occurred once
Psychic symptoms such as decrease of volition ([5]; during DN-1417 treatment): improved
Overall clinical effect [6]: effective for West's syndrome
EEG ([6]; 2 weeks after the DN-1417 treatment): did not show hypsarhythmia
Drowsiness ([6]; after a week): drowsiness due to nitrazepam was reduced
EEG ([6]; after a week): remained unchanged
Seizure frequency ([6]; from the 2nd week of treatment, same at the 3rd week): 5-6 times a day
Side effects ([6]; whole course): No side effects

O=C1CN=C(c2ccccc2)c2cc([N+](=O)[O-])ccc2N1 [Nitrazepam, nitrazepam, reference compound]
Adverse effects ([6]; nitrazepam 1.5 mg/day): Severe drowsiness and stridor
Frequency of seizure occurrences ([6]; nitrazepam 1.5 mg/day in three divided doses): 6-7 times a day
Frequency of seizure occurrences ([6]; nitrazepam reduced to 0.6 mg/day): 10 times a day

O=C1CN=C(c2ccccc2Cl)c2cc([N+](=O)[O-])ccc2N1 [clonazepam, reference compound]
Myoclonus at rest ([1]; clonazepam 2 mg daily combined with other antiepileptics, before DN-1417): almost complete disappearance

CCC1(c2ccccc2)C(=O)NC(=O)NC1=O [phenobarbital]
Blood concentration ([7]; Case 3, after 2 weeks of DN-1417 1 mg i.m. daily with the antiepileptics): 24600 ng/mL
Blood concentration ([7]; Case 3, multiple drug therapy before DN-1417): 18900 ng/mL

O=C1NC(=O)C(c2ccccc2)(c2ccccc2)N1 [phenytoin]
Blood concentration ([7]; in vivo): 9000 ng/mL

CCCC(CCC)C(=O)[O-].[Na+] [sodium valproate, reference compound]
Convulsions ([1]; after about 3 months on sodium valproate, before DN-1417): convulsions were inhibited
Myoclonus ([1]; on sodium valproate, before DN-1417): remained prominent
Blood concentration ([7]; in vivo): 36000 ng/mL

ACTH: ACTH therapy; adrenocorticotropic hormones (SYSMEHFRWGKPVGKKRRPVKVYPNGAEDESAEAFPLEF; Corticotropin; UniProt P01189 138-176, looked up) [reference compound]
Effect of ACTH therapy ([3]; before DN-1417): with no avail
